Test [1] has as its system H3K9me3 in HMLE-TWIST cells. Description: H3K9me3 chromatin immunoprecipitation and deep sequencing. The class given is cell-based, human. As for the experimental part: FIG. 11 is a meta-plot depicting the H3K9me3 peaks in HMLE-TWIST cells treated (right graph) with 0.3 μM of chaetocin for 15 hours versus untreated cells (left graph). […] The decrease in red and yellow color and an increase in blue color is consistent with chaetocin-induced inhibition of Suv39H1 and Suv39H2 activities resulting in a decrease in H3K9me3 throughout the chaetocin-treated HMLE-TWIST cells.
Chaetocin is an inhibitor of Suv39H1 and Suv39H2 enzymes, whose catalytic activities trimethylates lysine 9 of histone H3. […] Consistent with our model, we find that genes involved in cell-cell adhesion (a strong marker for epithelial cells) display a specific loss of H3K9me3 in response to chaetocin treatment (Table 6). We also find that genes involved in neural differentiation also lose H3K9me3. […] Moreover, 60 genes display a simultaneous loss of H3K9me3 and an increase in their expression in chaetocin-treated cells (Table 7).

In a further test the test system is Suv39H1 and Suv39H2. To be noted: cited from earlier work.
The test system of a further test is HMLE-SNAIL cells. Description: CD44/CD24 FACS analysis. The conditions noted are these: 1 μM for two days. The class given is cell-based, human. An excerpt:
The y- and the x-axes represent fluorescence intensity of CD24 and CD44 cell surface markers, respectively. In this cell line, high CD44 and low CD24 expression indicate TIC cell populations. Cells that express CD24 are considered non-TICs.
Cell surface markers can be used to identify mesenchymal, TIC cells. In breast cancer, the presence of CD44 and absence of CD24 markers are indicators of TICs. Specifically, cells expressing high levels of CD44 and no expression of CD24 are considered TICs, whereas cells expressing CD24 are considered non-TICs. HMLE cells display these cell surface markers upon overexpression of SNAIL or TWIST, which turns on the EMT transcriptional program and promotes a mesenchymal TIC state in cancer cells. To determine whether chaetocin treatment alters the mesenchymal phenotype of TICs, these markers were used to track the fate of HMLE-SNAIL cells following chaetocin treatment (1 μM) using fluorescence-activated cell sorting (FACS) analysis. FIGS. 3A-3B show a heat map plot of FACS results under control conditions (FIG. 3A) and following chaetocin treatment (FIG. 3B). The y-axis corresponds to CD24 fluorescence intensity and the x-axis corresponds to CD44 fluorescence intensity.

The next test deals with MDA-MB-231 cells. Description: Cleaved caspase 3 apoptosis assay. The class given is cell-based, human. The conditions noted are these: chaetocin 0, 100, 200 nM; compared with MDA-MB-468. An excerpt:
(§1) FIGS. 1A-1K are a series of figures showing sensitivity of tumor initiating cell (TICs)-rich, chemoresistant breast cancer and clear cell renal cell carcinoma cell lines to chaetocin compared to non-cancerous epithelial or isogenic cancerous epithelial, TIC-deplete, chemosensitive breast cancer and clear cell renal cell carcinoma cell lines. […] The data presented in FIGS. 1A and 1B indicate that at lower doses especially chaetocin specifically induces apoptosis of mesenchymal, TIC-rich, chemotherapy-resistant breast cancer cell lines compared to the epithelial, non-TIC-rich and chemotherapy-responsive cell-line.
(§2) To determine whether constitutive heterochromatin proteins are similarly required for the development of […] in cancer, the efficacy of a heterochromatin inhibitor, which selectively represses the activities of two proteins critical for constitutive heterochromatin formation, namely suppressor of variegation 3-9 homolog 1 (Suv39H1) and suppressor of variegation 3-9 homolog 2 (Suv39H2), was tested in human cells, using 2-D, spheroid and tumorsphere assays. To determine the sensitivity of well-established mesenchymal and epithelial cancer cells to a heterochromatin inhibitor, chaetocin, the degree of apoptotic cell death was measured in two cancer cell lines, MDA-MB-231 and MDA-MB-468. […]

The test system of a further test is MDA-MB-468 cells. In words: Cleaved caspase 3 apoptosis assay. The class given is cell-based, human. The conditions noted are these: chaetocin 0, 400, 800 nM; compared with MDA-MB-231.
Excerpt: as §1, §2

A further test has as its system HMLE-TWIST cells. The conditions noted are these: 20, 50, 100 nM for 5 or 15 hours, two days chaetocin-free, then doxorubicin. As for the experimental part: Doxorubicin was added after two days and cell death was assayed with cleaved caspase-3 intensity.
To determine if EMT reversal with chaetocin can sensitize TIC-rich breast cancer cells, namely HMLE-TWIST cells, to conventional chemotherapeutic agents, cells were treated for 5 or 15 hours with different concentrations of chaetocin (20 nM, 50 nM, and 100 nM), as is schematized in FIG. 4A. Cells were then washed and incubated in chaetocin-free media for two days. Doxorubicin was then added, and cell death was assayed using FACS analysis of caspase-3 cleavage two days after doxorubicin addition.

Setting [2] is: 0.3 uM for 15 hours, Gene Ontology Biological Process.

These results are taken from US12396996B2, “Compounds, pharmaceutical compositions, and methods of their use in reversing cancer chemoresistance” (priority 2019, dated 2025).

On to `CN1C(=O)[C@@]23C[C@]4([C@]56C[C@@]78SS[C@](CO)(C(=O)N7[C@H]5Nc5ccccc56)N(C)C8=O)c5ccccc5N[C@@H]4N2C(=O)[C@@]1(CO)SS3` [chaetocin], for which the “change in H3K9me3 profile” value in test [1] (0.3 μM for 15 hours versus untreated) is listed as “specific loss of H3K9me3 over epithelial genes”. Further, in test [1] (0.3 μM for 15 hours, ChIP-seq with RNA-seq), the “number of genes with simultaneous loss of H3K9me3 and increase in expression” value is given as 60 genes. In test [1] (setting [2]), the “Fold Enrichment of cell-cell adhesion among genes which lose H3K9me3” value was 2.49 and the “Fold Enrichment of neuron differentiation among genes which lose H3K9me3” value was determined as 2.12. Further, the inhibitor specificity result in the test with Suv39H1 and Suv39H2 is “specific inhibitor of Suv39H1 and Suv39H2 heterochromatin proteins”. Moreover, in the test with HMLE-SNAIL cells, the “CD44/CD24 phenotype (TIC to non-TIC)” value is “reprograms TICs into a non-TIC phenotype”. The “apoptosis (cleaved caspase 3) sensitivity” value with MDA-MB-231 cells is “more sensitive to chaetocin compared to the non-TIC, MDA-MB-468 cells”. For the same compound, the “apoptosis (cleaved caspase 3) sensitivity” value in the test on MDA-MB-468 cells is “increased sensitivity to chaetocin as compared to MDA-MB-231 cells”. Also, the “reversal of resistance to doxorubicin (caspase-3 cleavage)” value in the test with HMLE-TWIST cells is on record as “reverses chemotherapy resistance of mesenchymal, TIC-rich HMLE-TWIST cells to doxorubicin”.
